These results are taken from PubChem BioAssay AID2060892 (Molecular Pharmacology Branch, DTP, NCI, 2025).

This assay relates to HOP-62 complex spheroids with HUVEC/MSC, viability. Kind of assay: Anticancer human tumor HOP-62 cell line growth inhibition [RAS].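 For all read-outs here: spheroids exposed to agents for seven days before readout.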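 For viability, T/C: 100% = DMSO vehicle control viability.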 The conditions noted are these: for viability, T/C: stronger effect = lower value. The text has this: RAS pathway inhibitors in Combinations in Complex Spheroids
A high-throughput screen of multi-cell type tumor spheroids was designed to identify active combinations of RAS pathway inhibitors and targeted small molecules. Complex spheroids include a stromal component modeled by human endothelial cells (HUVEC) and fibroblasts modeled by human mesenchymal stem cells (MSCs). The concentration ranges selected for each drug and investigational agent were based upon clinically achievable concentrations if the clinical Cmax of the agent was known.
Compounds. The drugs and investigational agents: abemaciclib (NSC768073), cobimetinib (NSC768068), divarasib (GDC6063, NSC841802), docetaxel (NSC628503), GDC-1971 (RLY-1971, NSC841576), gemcitabine (NSC613327), inavolisib (NSC800729), ipatasertib (NSC767898), KB-0742 (NSC834161), MRTX-1133 (NSC836407), osimertinib (NSC779217), RMC-4630 (NSC839698), RMC-6236 (NSC851965), RMC-6291 (NSC852671), Ro-3306 (NSC812927), sapanisertib (NSC764658), SN-38 (NSC673596), staurosporine (NSC755774), SY5609 (NSC837396), and tovorafenib (DAY101, NSC766906), were obtained from the National Cancer Institute (NCI) Developmental Therapeutics Program Chemical Repository. The FDA-approved anticancer drug set is available from the NCI Developmental Therapeutics Program. […] The stock solutions were prepared in dimethyl sulfoxide (DMSO, Sigma-Aldrich, St. Louis, MO, cat. D2650) at 800-fold the tested concentration and stored at -70 degrees C prior to their use. All drugs and investigational agents were tested over a range starting from a high concentration at or near the clinical Cmax and decreasing in half-log increments. If the clinical Cmax for an agent had not been determined, the highest concentration tested was 10 microM.
Cell Culture. All cells were maintained in an incubator at 37 degrees C and 5% CO2 with 95% humidity. The PDC lines were cultured according to standard operating procedures established by the NCI PDMR. All PDCs were thawed and cultured in Matrigel-coated flasks prepared with a working solution of 1X Ham's F-12 nutrient mix, without supplementation (Invitrogen, Waltham, MA, cat. 11765054), 100 U/mL penicillin-streptomycin (Invitrogen, cat. 15140122), and 2.5% Matrigel (Corning Inc., Corning, NY, cat. 354248) for the first three passages. The 362531-283-R-J2-PDC and 782815-120-R-J1-PDC lines were cultured in 6C/Colon 1B media, which includes advanced DMEM/F-12 (Thermo Fisher Scientific, cat. 12634028), 10 mM HEPES (Thermo Fisher Scientific, cat. 15630080), 1X GlutaMAX supplement (Thermo Fisher Scientific, cat. 35050061), 0.1 mg/mL primocin (InvivoGen, San Diego, CA, cat. ant-pm-2), 10% defined fetal bovine serum, heat inactivated (HyClone Laboratories Inc., Logan, UT, cat. SH30070.03HI), 50% L-WRN conditioned media (ATCC, cat. CRL-3276), 1.25 mM N-Acetyl-L-cysteine (Sigma-Aldrich, cat. A9165), 10 mM nicotinamide (Sigma-Aldrich, cat. N0636), 1X B-27 supplement (Thermo Fisher Scientific, cat. 17504044), 1X N-2 supplement (Thermo Fisher Scientific, cat. 17502048), 50 ng/mL human EGF (Thermo Fisher Scientific, cat. PHG0311), and 10 microM Y-27632 dihydrochloride (Tocris Bioscience, cat. 1254). The K12877-001-R-J1-PDC line was cultured in 6I media, which includes all 6C/Colon 1B media plus 10 ng/mL human FGF-10 (PeproTech, cat. 100-26), 1 ng/mL human FGF-2 (PeproTech, cat. 100-18B), 1 µM prostaglandin E2 (Tocris Bioscience, cat. 2296), […] hydrocortisone (Sigma-Aldrich, cat. H4001), and […] bovine insulin (Sigma-Aldrich, cat. I6634). The K86415-001-R-J1-PDC line was cultured in 6D media, which includes all 6C/Colon 1B media components minus the L-WRN conditioned media. The 485176-168-R4-J1-PDC was cultured in PANC media, which includes all 6C/Colon 1B media plus 100 ng/mL human FGF-10 (PeproTech, cat. 100-26), 500 nM SB-431542 (Selleckchem, cat. S1067), and 10 nM gastrin (Tocris Bioscience, cat. 3006). […]

Values joined by “and” are separate entries in the source; they are usually repeats but may differ in a detail not shown here. Equal entries are not always repeated.

Turning to `CC(Nc1ccc2c(c1)OCCn1cc(N3C(=O)OCC3C(F)F)nc1-2)C(N)=O` (stereo not given), the viability, T/C (compound 10 µM) was 36.1% (2×) and 49.9% and 54.1%. The IC50 (curve of compound) was 2310 nM and > 10000 nM and 1990 nM.

Consider `CC1(O)CCCC1n1c(=O)c(C(F)F)cc2cnc(NC3CCN(S(C)(=O)=O)CC3)nc21` (stereo not given), for which the viability, T/C is, setting by setting: (compound 0.0316 µM) 100% [middle of 4 runs]; (compound 10 µM) 4.01% [middle of 4 runs].

On to `CCC(CC)c1cc(NC2CCC(N)C2)n2nccc2n1` (stereo not given), for which the viability, T/C was 115% [middle of 4 runs] (compound 0.0316 µM); 112% [middle of 4 runs] (compound 0.1 µM); 112% [middle of 4 runs] (compound 0.316 µM); 109% and 108% (2×) and 113% (compound 1 µM); 9.12% [middle of 4 runs] (compound 3.16 µM); 1.18% [middle of 4 runs] (compound 10 µM). Besides, for the setting “curve of compound”, the concentration for half-maximal inhibition (IC50) was 1900 nM and 1970 nM and 2030 nM.

As for `C[C@@H](NC(=O)c1ncnc(N)c1Cl)c1ncc(C(=O)Nc2cc(C(F)(F)F)c(Cl)cn2)s1`, the viability, T/C (compound 0.0316 µM) is 102% (2×) and 107% and 101%; the viability, T/C (compound 0.1 µM) is 98.6% [middle of 4 runs]; the viability, T/C (compound 0.316 µM) was 105% and 98.1% and 104% (2×); the viability, T/C (compound 1 µM) is 104% [middle of 4 runs]; the viability, T/C (compound 3.16 µM) was 96% [middle of 4 runs]. Where the note is “curve of compound”, the IC50 was > 10000 nM.

In the case of `Cc1nc(N2CCC3(CC2)COC(C)C3N)c(CO)nc1Sc1ccnc(N)c1Cl` (stereo not given), the viability, T/C is 108% [middle of 4 runs] (compound 0.0316 µM); 106% (3×) and 107% (compound 0.1 µM); 102% [middle of 4 runs] (compound 0.316 µM). For the same compound, the IC50 (curve of compound) was > 10000 nM.

For the compound `NC1c2ccccc2OC12CCN(c1cnc3c(N4CCCc5ncccc54)n[nH]c3n1)CC2` (stereo not given), the viability, T/C (compound 0.0316 µM) was 106% [middle of 4 runs]. The IC50 (curve of compound) is 4450 nM and > 10000 nM and 9130 nM.

Take `C=CC(=O)Nc1cc(Nc2nccc(-c3cn(C)c4ccccc34)n2)c(OC)cc1N(C)CCN(C)C` + C#Cc1c(F)ccc2cc(O)cc(-c3ncc4c(N5CC6CCC(C5)N6)nc(OCC56CCCN5CC(F)C6)nc4c3F)c12: the concentration for half-maximal inhibition (IC50) reads like this: (curve of first compound, second compound 0.0316 µM) > 1000 nM; (curve of first compound, second compound 0.1 µM) > 1000 nM; (curve of first compound, second compound 0.316 µM) > 1000 nM; (curve of first compound, second compound 1 µM) > 1000 nM; (curve of first compound, second compound 3.16 µM) 535 nM; (curve of first compound, second compound 10 µM) < 3.16 nM. In addition, the viability, T/C (second compound 0.0316 µM, first compound 0.00316 µM) was 109%; the viability, T/C (second compound 0.0316 µM, first compound 0.01 µM) was 105%; the viability, T/C (second compound 0.0316 µM, first compound 0.0316 µM) was 106%; the viability, T/C (second compound 0.0316 µM, first compound 0.1 µM) is 109%; the viability, T/C (second compound 0.0316 µM, first compound 0.316 µM) is 108%; the viability, T/C (second compound 0.0316 µM, first compound 1 µM) was 93%. Moreover, the viability, T/C is, setting by setting: (second compound 0.1 µM, first compound 0.00316 µM) 108%; (second compound 0.1 µM, first compound 0.01 µM) 114%; (second compound 0.1 µM, first compound 0.0316 µM) 106%; (second compound 0.1 µM, first compound 0.1 µM) 100%; (second compound 0.1 µM, first compound 0.316 µM) 101%; (second compound 0.1 µM, first compound 1 µM) 90.4%. Moreover, the viability, T/C was 109% (second compound 0.316 µM, first compound 0.00316 µM); 102% (second compound 0.316 µM, first compound 0.01 µM); 100% (second compound 0.316 µM, first compound 0.0316 µM); 112% (second compound 0.316 µM, first compound 0.1 µM); 98% (second compound 0.316 µM, first compound 0.316 µM); 83.6% (second compound 0.316 µM, first compound 1 µM). Besides, the viability, T/C (second compound 1 µM, first compound 0.00316 µM) is 104%; the viability, T/C (second compound 1 µM, first compound 0.01 µM) was 105%; the viability, T/C (second compound 1 µM, first compound 0.0316 µM) was 98.5%; the viability, T/C (second compound 1 µM, first compound 0.1 µM) was 93.2%; the viability, T/C (second compound 1 µM, first compound 0.316 µM) is 86.9%; the viability, T/C (second compound 1 µM, first compound 1 µM) is 75.1%. Moreover, the viability, T/C by setting is: (second compound 3.16 µM, first compound 0.00316 µM) 74.8%; (second compound 3.16 µM, first compound 0.01 µM) 74.3%; (second compound 3.16 µM, first compound 0.0316 µM) 81%; (second compound 3.16 µM, first compound 0.1 µM) 81.8%; (second compound 3.16 µM, first compound 0.316 µM) 59.2%; (second compound 3.16 µM, first compound 1 µM) 38.9%. Moreover, the viability, T/C by setting is: (second compound 10 µM, first compound 0.00316 µM) 47.2%; (second compound 10 µM, first compound 0.01 µM) 45.9%; (second compound 10 µM, first compound 0.0316 µM) 53%; (second compound 10 µM, first compound 0.1 µM) 40.4%; (second compound 10 µM, first compound 0.316 µM) 35.4%; (second compound 10 µM, first compound 1 µM) 29.5%.
